Reference: PMC5540273, “Progress towards a public chemogenomic set for protein kinases and a call for contributions” (PLoS ONE, 2017)

The compounds below were run against ACVRL1 (Homo sapiens, UniProt P37023) (assay: KINOMEscan competition binding). Conditions: read-out: %Inh ACVRL1.
ACVRL1, sequence (P37023 22-503): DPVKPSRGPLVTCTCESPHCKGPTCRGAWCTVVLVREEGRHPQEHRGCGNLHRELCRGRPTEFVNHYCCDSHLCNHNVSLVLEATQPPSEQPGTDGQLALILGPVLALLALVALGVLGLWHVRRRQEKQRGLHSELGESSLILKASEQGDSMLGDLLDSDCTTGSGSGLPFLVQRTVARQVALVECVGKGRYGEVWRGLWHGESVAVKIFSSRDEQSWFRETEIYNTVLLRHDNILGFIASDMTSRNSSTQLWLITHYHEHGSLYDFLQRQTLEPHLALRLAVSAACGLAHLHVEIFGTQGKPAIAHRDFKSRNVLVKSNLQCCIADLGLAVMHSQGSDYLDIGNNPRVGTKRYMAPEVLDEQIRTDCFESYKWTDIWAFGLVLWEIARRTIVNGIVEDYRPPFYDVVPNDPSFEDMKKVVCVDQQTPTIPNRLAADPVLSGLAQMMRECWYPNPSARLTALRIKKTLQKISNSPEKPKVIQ

SMILES | inhibition at 1 µM [%]
O=c1cc(N2CCOCC2)nc2n(Cc3cccc(Cl)c3Cl)c(C3CC3)nn12 [UNC10225469A] | 9
Cn1cc(-c2cnc(N)c3c(-c4ccc5c(c4)CCN5C(=O)Cc4ccccc4)csc23)cn1 [UNC10225012A] | 0
CS(=O)(=O)Cc1ccc(Nc2nccc(-c3c(-c4cccc(NC(=O)C5CCCCC5)c4)nn4ncccc34)n2)cc1 [UNC10225159A] | 0
COc1cccc(OC)c1C(=O)Nc1cccc(-c2nn3ccccc3c2-c2ccnc(Nc3cccc(F)c3)n2)c1 [UNC10225310A] | 7
Cc1ccc(NC(=O)Nc2cccc(C(F)(F)F)c2)cc1 [UNC10225187A] | 0

The compounds below were run against CAMK1G (Homo sapiens, UniProt Q96NX5) (assay: KINOMEscan competition binding). Conditions: read-out: %Inh CAMK1G.
CAMK1G, sequence (Q96NX5 whole entry): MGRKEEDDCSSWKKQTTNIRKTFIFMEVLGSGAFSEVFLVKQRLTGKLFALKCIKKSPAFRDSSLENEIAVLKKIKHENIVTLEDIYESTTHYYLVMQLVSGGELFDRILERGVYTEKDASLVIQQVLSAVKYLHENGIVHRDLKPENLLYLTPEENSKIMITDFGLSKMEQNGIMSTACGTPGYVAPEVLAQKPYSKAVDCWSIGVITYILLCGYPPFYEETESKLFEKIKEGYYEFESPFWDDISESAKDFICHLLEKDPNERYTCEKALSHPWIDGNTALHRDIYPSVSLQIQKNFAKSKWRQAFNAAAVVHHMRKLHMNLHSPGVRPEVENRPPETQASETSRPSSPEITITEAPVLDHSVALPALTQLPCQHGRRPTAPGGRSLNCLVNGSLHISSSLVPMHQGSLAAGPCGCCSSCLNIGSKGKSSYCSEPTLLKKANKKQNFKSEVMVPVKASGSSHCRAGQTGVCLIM

SMILES | inhibition at 1 µM [%]
O=c1cc(N2CCOCC2)nc2n(Cc3cccc(Cl)c3Cl)c(C3CC3)nn12 [UNC10225469A] | 5
Cn1cc(-c2cnc(N)c3c(-c4ccc5c(c4)CCN5C(=O)Cc4ccccc4)csc23)cn1 [UNC10225012A] | 0
CS(=O)(=O)Cc1ccc(Nc2nccc(-c3c(-c4cccc(NC(=O)C5CCCCC5)c4)nn4ncccc34)n2)cc1 [UNC10225159A] | 0
COc1cccc(OC)c1C(=O)Nc1cccc(-c2nn3ccccc3c2-c2ccnc(Nc3cccc(F)c3)n2)c1 [UNC10225310A] | 0
Cc1ccc(NC(=O)Nc2cccc(C(F)(F)F)c2)cc1 [UNC10225187A] | 10

What follows are compounds tested against CDC2L1 (Homo sapiens, UniProt P21127) (assay: KINOMEscan competition binding). Conditions: read-out: %Inh CDC2L1.

SMILES | inhibition at 1 µM [%]
O=c1cc(N2CCOCC2)nc2n(Cc3cccc(Cl)c3Cl)c(C3CC3)nn12 [UNC10225469A] | 0
Cn1cc(-c2cnc(N)c3c(-c4ccc5c(c4)CCN5C(=O)Cc4ccccc4)csc23)cn1 [UNC10225012A] | 4
CS(=O)(=O)Cc1ccc(Nc2nccc(-c3c(-c4cccc(NC(=O)C5CCCCC5)c4)nn4ncccc34)n2)cc1 [UNC10225159A] | 0
COc1cccc(OC)c1C(=O)Nc1cccc(-c2nn3ccccc3c2-c2ccnc(Nc3cccc(F)c3)n2)c1 [UNC10225310A] | 0
Cc1ccc(NC(=O)Nc2cccc(C(F)(F)F)c2)cc1 [UNC10225187A] | 3

These compounds were tested against CDK11 (Homo sapiens, UniProt Q9BWU1) (assay: KINOMEscan competition binding). Conditions: read-out: %Inh CDK11.
CDK11, sequence (Q9BWU1 whole entry): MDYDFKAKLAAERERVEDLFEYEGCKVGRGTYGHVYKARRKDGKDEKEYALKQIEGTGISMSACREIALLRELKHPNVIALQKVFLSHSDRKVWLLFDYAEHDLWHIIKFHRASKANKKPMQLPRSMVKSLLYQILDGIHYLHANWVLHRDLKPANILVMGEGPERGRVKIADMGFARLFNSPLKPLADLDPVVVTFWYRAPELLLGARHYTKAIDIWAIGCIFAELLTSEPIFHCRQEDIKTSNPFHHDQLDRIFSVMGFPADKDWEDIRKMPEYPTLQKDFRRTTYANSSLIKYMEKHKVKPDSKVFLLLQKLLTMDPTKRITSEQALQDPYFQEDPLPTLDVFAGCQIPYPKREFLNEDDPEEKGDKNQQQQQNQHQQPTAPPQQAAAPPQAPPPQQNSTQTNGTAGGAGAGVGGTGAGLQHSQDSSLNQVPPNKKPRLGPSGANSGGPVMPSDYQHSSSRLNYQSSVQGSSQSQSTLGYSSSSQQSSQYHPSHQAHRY

SMILES | inhibition at 1 µM [%]
O=c1cc(N2CCOCC2)nc2n(Cc3cccc(Cl)c3Cl)c(C3CC3)nn12 [UNC10225469A] | 0
Cn1cc(-c2cnc(N)c3c(-c4ccc5c(c4)CCN5C(=O)Cc4ccccc4)csc23)cn1 [UNC10225012A] | 18
CS(=O)(=O)Cc1ccc(Nc2nccc(-c3c(-c4cccc(NC(=O)C5CCCCC5)c4)nn4ncccc34)n2)cc1 [UNC10225159A] | 0
COc1cccc(OC)c1C(=O)Nc1cccc(-c2nn3ccccc3c2-c2ccnc(Nc3cccc(F)c3)n2)c1 [UNC10225310A] | 0
Cc1ccc(NC(=O)Nc2cccc(C(F)(F)F)c2)cc1 [UNC10225187A] | 20

The compounds below were run against CDK4-cyclinD3 (Homo sapiens, UniProt P11802) (assay: KINOMEscan competition binding). Conditions: read-out: %Inh CDK4-cyclinD3.
CDK4-cyclinD3, sequence (P11802 whole entry): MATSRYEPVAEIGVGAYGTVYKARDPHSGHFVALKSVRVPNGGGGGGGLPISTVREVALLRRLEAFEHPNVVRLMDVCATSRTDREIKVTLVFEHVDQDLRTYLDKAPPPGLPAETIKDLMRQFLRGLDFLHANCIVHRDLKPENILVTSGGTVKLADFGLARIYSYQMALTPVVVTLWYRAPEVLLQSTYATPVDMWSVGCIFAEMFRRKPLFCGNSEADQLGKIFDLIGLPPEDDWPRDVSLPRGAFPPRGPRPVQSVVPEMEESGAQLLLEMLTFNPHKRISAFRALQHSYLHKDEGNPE
CDK4-cyclinD3, sequence (P30281 whole entry partner): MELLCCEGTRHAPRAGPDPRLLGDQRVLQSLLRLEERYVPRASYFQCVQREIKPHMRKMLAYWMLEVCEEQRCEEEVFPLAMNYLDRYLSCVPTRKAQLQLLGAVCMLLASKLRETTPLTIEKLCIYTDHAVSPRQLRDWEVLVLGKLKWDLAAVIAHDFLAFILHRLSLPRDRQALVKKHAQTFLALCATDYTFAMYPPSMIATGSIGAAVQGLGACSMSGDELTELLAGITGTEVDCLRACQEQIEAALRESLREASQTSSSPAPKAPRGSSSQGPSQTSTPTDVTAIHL

SMILES | inhibition at 1 µM [%]
O=c1cc(N2CCOCC2)nc2n(Cc3cccc(Cl)c3Cl)c(C3CC3)nn12 [UNC10225469A] | 0
Cn1cc(-c2cnc(N)c3c(-c4ccc5c(c4)CCN5C(=O)Cc4ccccc4)csc23)cn1 [UNC10225012A] | 0
CS(=O)(=O)Cc1ccc(Nc2nccc(-c3c(-c4cccc(NC(=O)C5CCCCC5)c4)nn4ncccc34)n2)cc1 [UNC10225159A] | 18
COc1cccc(OC)c1C(=O)Nc1cccc(-c2nn3ccccc3c2-c2ccnc(Nc3cccc(F)c3)n2)c1 [UNC10225310A] | 7
Cc1ccc(NC(=O)Nc2cccc(C(F)(F)F)c2)cc1 [UNC10225187A] | 0

Each compound was assayed against CSNK1E (Homo sapiens, UniProt P49674) (assay: KINOMEscan competition binding). Conditions: read-out: %Inh CSNK1E.
CSNK1E, sequence (P49674 whole entry): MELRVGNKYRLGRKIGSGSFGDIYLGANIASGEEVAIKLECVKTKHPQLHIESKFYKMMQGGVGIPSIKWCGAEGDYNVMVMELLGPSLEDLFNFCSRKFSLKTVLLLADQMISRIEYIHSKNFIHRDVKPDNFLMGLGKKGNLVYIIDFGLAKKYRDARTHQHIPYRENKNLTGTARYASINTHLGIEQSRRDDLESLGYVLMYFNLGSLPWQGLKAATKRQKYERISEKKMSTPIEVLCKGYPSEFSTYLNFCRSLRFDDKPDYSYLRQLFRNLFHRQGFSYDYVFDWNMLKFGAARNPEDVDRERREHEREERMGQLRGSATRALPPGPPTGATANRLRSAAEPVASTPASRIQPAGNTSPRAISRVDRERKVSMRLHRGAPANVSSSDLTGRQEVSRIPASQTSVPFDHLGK

SMILES | inhibition at 1 µM [%]
O=c1cc(N2CCOCC2)nc2n(Cc3cccc(Cl)c3Cl)c(C3CC3)nn12 [UNC10225469A] | 11
Cn1cc(-c2cnc(N)c3c(-c4ccc5c(c4)CCN5C(=O)Cc4ccccc4)csc23)cn1 [UNC10225012A] | 1
CS(=O)(=O)Cc1ccc(Nc2nccc(-c3c(-c4cccc(NC(=O)C5CCCCC5)c4)nn4ncccc34)n2)cc1 [UNC10225159A] | 20
COc1cccc(OC)c1C(=O)Nc1cccc(-c2nn3ccccc3c2-c2ccnc(Nc3cccc(F)c3)n2)c1 [UNC10225310A] | 64
Cc1ccc(NC(=O)Nc2cccc(C(F)(F)F)c2)cc1 [UNC10225187A] | 0

Each compound was assayed against ERBB2 (Homo sapiens, UniProt P04626) (assay: KINOMEscan competition binding). Conditions: read-out: %Inh ERBB2.
ERBB2, sequence (P04626 23-1255): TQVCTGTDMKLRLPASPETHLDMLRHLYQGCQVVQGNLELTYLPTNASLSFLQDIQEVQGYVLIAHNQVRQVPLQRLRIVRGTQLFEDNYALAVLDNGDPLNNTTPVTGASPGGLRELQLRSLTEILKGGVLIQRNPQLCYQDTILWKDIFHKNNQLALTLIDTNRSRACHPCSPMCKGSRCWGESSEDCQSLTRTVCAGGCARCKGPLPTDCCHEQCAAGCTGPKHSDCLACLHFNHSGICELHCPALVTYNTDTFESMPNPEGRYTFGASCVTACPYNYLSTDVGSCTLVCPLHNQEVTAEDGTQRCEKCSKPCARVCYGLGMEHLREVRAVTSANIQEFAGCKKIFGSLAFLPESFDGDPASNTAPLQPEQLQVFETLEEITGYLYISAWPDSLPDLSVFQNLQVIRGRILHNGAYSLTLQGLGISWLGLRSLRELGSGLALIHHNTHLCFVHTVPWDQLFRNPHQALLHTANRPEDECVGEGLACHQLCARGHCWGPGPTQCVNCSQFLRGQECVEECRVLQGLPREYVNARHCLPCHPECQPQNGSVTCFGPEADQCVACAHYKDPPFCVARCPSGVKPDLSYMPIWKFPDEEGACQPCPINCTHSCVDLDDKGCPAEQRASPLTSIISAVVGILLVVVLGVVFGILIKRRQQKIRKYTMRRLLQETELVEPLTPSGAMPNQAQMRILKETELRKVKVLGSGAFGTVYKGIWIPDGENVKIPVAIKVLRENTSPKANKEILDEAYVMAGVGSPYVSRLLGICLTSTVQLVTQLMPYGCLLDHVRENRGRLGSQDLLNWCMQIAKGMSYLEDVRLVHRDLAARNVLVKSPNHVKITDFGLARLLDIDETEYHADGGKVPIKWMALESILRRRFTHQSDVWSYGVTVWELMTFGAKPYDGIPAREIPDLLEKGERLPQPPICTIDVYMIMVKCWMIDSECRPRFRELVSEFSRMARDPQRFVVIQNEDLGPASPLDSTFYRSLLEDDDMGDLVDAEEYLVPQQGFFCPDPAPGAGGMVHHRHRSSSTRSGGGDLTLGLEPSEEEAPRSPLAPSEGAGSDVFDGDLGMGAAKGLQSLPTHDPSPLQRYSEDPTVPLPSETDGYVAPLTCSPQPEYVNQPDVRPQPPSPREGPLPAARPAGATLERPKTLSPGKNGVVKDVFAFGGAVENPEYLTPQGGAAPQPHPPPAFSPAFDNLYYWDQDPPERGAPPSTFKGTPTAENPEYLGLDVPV

SMILES | inhibition at 1 µM [%]
O=c1cc(N2CCOCC2)nc2n(Cc3cccc(Cl)c3Cl)c(C3CC3)nn12 [UNC10225469A] | 0
Cn1cc(-c2cnc(N)c3c(-c4ccc5c(c4)CCN5C(=O)Cc4ccccc4)csc23)cn1 [UNC10225012A] | 0
CS(=O)(=O)Cc1ccc(Nc2nccc(-c3c(-c4cccc(NC(=O)C5CCCCC5)c4)nn4ncccc34)n2)cc1 [UNC10225159A] | 25
COc1cccc(OC)c1C(=O)Nc1cccc(-c2nn3ccccc3c2-c2ccnc(Nc3cccc(F)c3)n2)c1 [UNC10225310A] | 61
Cc1ccc(NC(=O)Nc2cccc(C(F)(F)F)c2)cc1 [UNC10225187A] | 0

What follows are compounds tested against T1, FLT3-autoinhibited (Homo sapiens, UniProt P36888) (assay: KINOMEscan competition binding). Conditions: read-out: %Inh FLT3-autoinhibited.
T1 sequence (P36888 27-993): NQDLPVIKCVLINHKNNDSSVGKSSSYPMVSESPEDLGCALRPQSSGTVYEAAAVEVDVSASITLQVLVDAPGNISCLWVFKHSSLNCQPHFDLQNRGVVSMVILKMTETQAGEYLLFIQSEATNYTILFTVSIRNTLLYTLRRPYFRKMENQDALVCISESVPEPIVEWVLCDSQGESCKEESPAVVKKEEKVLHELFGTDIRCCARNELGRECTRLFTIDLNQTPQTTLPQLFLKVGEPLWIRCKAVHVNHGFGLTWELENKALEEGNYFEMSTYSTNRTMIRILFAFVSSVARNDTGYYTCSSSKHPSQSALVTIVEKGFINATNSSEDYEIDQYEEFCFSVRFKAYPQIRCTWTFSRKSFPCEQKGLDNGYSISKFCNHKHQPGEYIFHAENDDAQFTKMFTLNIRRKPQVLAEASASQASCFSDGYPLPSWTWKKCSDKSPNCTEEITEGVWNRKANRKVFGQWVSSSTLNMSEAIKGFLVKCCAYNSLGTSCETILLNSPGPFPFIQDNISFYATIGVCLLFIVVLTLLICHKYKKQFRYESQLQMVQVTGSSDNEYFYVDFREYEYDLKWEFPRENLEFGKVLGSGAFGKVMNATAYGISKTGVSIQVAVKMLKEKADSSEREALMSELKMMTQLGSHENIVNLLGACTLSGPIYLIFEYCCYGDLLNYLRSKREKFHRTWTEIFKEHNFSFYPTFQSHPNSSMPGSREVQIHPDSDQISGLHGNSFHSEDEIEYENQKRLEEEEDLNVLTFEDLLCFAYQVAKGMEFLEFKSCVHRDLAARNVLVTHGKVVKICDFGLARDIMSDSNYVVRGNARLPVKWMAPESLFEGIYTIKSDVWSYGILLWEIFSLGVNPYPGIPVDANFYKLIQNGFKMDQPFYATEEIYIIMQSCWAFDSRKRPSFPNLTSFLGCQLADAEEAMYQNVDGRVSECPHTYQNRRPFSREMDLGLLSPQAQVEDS

SMILES | inhibition at 1 µM [%]
O=c1cc(N2CCOCC2)nc2n(Cc3cccc(Cl)c3Cl)c(C3CC3)nn12 [UNC10225469A] | 0
Cn1cc(-c2cnc(N)c3c(-c4ccc5c(c4)CCN5C(=O)Cc4ccccc4)csc23)cn1 [UNC10225012A] | 0
CS(=O)(=O)Cc1ccc(Nc2nccc(-c3c(-c4cccc(NC(=O)C5CCCCC5)c4)nn4ncccc34)n2)cc1 [UNC10225159A] | 25
COc1cccc(OC)c1C(=O)Nc1cccc(-c2nn3ccccc3c2-c2ccnc(Nc3cccc(F)c3)n2)c1 [UNC10225310A] | 0
Cc1ccc(NC(=O)Nc2cccc(C(F)(F)F)c2)cc1 [UNC10225187A] | 0

The compounds below were run against IRAK1 (Homo sapiens, UniProt P51617) (assay: KINOMEscan competition binding). Conditions: read-out: %Inh IRAK1.

SMILES | inhibition at 1 µM [%]
O=c1cc(N2CCOCC2)nc2n(Cc3cccc(Cl)c3Cl)c(C3CC3)nn12 [UNC10225469A] | 0
Cn1cc(-c2cnc(N)c3c(-c4ccc5c(c4)CCN5C(=O)Cc4ccccc4)csc23)cn1 [UNC10225012A] | 0
CS(=O)(=O)Cc1ccc(Nc2nccc(-c3c(-c4cccc(NC(=O)C5CCCCC5)c4)nn4ncccc34)n2)cc1 [UNC10225159A] | 24
COc1cccc(OC)c1C(=O)Nc1cccc(-c2nn3ccccc3c2-c2ccnc(Nc3cccc(F)c3)n2)c1 [UNC10225310A] | 0
Cc1ccc(NC(=O)Nc2cccc(C(F)(F)F)c2)cc1 [UNC10225187A] | 0

These compounds were tested against LIMK2 (Homo sapiens, UniProt P53671) (assay: KINOMEscan competition binding). Conditions: read-out: %Inh LIMK2.
LIMK2, sequence (P53671 whole entry): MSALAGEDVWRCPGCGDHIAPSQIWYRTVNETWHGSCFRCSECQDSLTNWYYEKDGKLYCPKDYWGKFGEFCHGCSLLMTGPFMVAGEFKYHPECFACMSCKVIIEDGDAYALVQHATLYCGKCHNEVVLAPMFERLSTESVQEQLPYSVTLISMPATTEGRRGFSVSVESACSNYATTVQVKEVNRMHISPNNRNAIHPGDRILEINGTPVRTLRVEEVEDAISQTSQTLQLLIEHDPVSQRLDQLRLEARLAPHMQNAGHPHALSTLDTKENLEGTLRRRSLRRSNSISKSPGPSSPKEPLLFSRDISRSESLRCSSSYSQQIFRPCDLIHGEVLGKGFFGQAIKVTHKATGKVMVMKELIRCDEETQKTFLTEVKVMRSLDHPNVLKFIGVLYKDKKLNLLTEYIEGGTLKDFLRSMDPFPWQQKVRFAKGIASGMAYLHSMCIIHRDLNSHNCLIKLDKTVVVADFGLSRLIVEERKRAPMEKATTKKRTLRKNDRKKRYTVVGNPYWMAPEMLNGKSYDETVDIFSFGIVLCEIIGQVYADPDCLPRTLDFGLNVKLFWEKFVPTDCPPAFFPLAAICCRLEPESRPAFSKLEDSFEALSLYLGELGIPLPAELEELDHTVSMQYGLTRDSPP

SMILES | inhibition at 1 µM [%]
O=c1cc(N2CCOCC2)nc2n(Cc3cccc(Cl)c3Cl)c(C3CC3)nn12 [UNC10225469A] | 8
Cn1cc(-c2cnc(N)c3c(-c4ccc5c(c4)CCN5C(=O)Cc4ccccc4)csc23)cn1 [UNC10225012A] | 55
CS(=O)(=O)Cc1ccc(Nc2nccc(-c3c(-c4cccc(NC(=O)C5CCCCC5)c4)nn4ncccc34)n2)cc1 [UNC10225159A] | 14
COc1cccc(OC)c1C(=O)Nc1cccc(-c2nn3ccccc3c2-c2ccnc(Nc3cccc(F)c3)n2)c1 [UNC10225310A] | 15
Cc1ccc(NC(=O)Nc2cccc(C(F)(F)F)c2)cc1 [UNC10225187A] | 10

These compounds were tested against T2, MAP3K15 (Homo sapiens, UniProt Q6ZN16) (assay: KINOMEscan competition binding). Conditions: read-out: %Inh MAP3K15.
T2 sequence (Q6ZN16 1-1313): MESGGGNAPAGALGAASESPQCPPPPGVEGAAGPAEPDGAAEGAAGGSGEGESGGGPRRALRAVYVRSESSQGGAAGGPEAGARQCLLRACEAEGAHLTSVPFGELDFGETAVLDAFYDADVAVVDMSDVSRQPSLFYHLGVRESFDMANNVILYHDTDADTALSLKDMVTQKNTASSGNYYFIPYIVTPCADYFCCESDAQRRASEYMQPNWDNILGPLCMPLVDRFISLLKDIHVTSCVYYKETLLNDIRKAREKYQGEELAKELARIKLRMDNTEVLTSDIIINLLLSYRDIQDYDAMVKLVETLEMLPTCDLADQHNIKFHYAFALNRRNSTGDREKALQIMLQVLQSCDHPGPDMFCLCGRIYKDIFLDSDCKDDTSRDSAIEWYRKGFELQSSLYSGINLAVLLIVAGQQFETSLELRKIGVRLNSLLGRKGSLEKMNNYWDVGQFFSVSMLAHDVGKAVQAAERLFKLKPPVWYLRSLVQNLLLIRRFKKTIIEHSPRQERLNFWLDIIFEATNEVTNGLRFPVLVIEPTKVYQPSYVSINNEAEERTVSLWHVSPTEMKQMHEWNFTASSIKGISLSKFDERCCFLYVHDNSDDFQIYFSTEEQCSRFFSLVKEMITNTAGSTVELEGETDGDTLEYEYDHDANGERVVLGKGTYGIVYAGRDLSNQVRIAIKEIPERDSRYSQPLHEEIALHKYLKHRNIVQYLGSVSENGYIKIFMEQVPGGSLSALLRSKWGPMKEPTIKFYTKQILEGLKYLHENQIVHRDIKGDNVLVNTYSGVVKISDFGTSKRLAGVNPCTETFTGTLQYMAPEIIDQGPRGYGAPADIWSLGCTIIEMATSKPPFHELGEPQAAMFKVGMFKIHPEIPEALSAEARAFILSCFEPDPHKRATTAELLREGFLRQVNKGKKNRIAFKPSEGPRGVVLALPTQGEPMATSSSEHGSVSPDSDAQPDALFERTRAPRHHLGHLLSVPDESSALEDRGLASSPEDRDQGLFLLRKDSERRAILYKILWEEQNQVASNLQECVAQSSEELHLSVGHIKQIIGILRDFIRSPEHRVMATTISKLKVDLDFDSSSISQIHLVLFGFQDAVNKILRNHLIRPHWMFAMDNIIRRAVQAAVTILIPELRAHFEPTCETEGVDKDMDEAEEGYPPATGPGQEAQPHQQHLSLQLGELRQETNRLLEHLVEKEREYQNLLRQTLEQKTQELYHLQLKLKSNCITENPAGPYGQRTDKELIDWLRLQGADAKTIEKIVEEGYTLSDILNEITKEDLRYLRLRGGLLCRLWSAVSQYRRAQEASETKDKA

SMILES | inhibition at 1 µM [%]
O=c1cc(N2CCOCC2)nc2n(Cc3cccc(Cl)c3Cl)c(C3CC3)nn12 [UNC10225469A] | 0
Cn1cc(-c2cnc(N)c3c(-c4ccc5c(c4)CCN5C(=O)Cc4ccccc4)csc23)cn1 [UNC10225012A] | 35
CS(=O)(=O)Cc1ccc(Nc2nccc(-c3c(-c4cccc(NC(=O)C5CCCCC5)c4)nn4ncccc34)n2)cc1 [UNC10225159A] | 38
COc1cccc(OC)c1C(=O)Nc1cccc(-c2nn3ccccc3c2-c2ccnc(Nc3cccc(F)c3)n2)c1 [UNC10225310A] | 0
Cc1ccc(NC(=O)Nc2cccc(C(F)(F)F)c2)cc1 [UNC10225187A] | 0
